Key:
[1] = biological target: T1, human LXR beta ligand binding domain (LXR beta-LBD) (Homo sapiens, UniProt P55055); test: Radioligand binding assay (SPA), LXR beta; details: LXR beta-LBD on SPA beads, read-out: LXRbeta Binding IC50
T1 construct: human LXR beta (aa 155 to 460); unspecified tag ('tagged versions'); made in house; host or cells: E. coli BL21 (pLysS)
T1 sequence (P55055 155-460): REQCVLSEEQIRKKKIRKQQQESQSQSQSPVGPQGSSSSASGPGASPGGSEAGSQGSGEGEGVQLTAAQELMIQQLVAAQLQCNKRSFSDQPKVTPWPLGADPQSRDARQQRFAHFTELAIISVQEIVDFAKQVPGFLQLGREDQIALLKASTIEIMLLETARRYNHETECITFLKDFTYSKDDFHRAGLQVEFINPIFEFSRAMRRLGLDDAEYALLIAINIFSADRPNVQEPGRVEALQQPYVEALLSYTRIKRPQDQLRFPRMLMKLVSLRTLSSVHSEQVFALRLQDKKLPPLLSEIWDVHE
Protocol: (§1) The following tests were carried out in order to determine the activity of the compounds of the present invention. Background information on the performed assays can be found in: Nichols J S et al. “Development of a scintillation proximity assay for peroxisome proliferator-activated receptor gamma ligand binding domain”, Anal Biochem. 1998, 257: 112-119.
(§2) Mammalian expression vectors were constructed to express full-length human LXR alpha and LXR beta. Bacterial expression vectors were constructed to produce tagged versions of the ligand binding domains (LBD) of human LXR alpha (aa 164 to 447) and human LXR beta (aa 155 to 460). To accomplish this, the portions of the sequences encoding the LBDs were amplified from the full-length clones by PCR and then subcloned into the plasmid vectors. Final clones were verified by DNA sequence analysis (Willy et al., Genes Dev. 1995, 9:1033-45; Song et al., Proc Natl Acad Sci USA.1994, 91:10809-13).
(§3) Induction, expression, and purification of LBD proteins were performed in E. coli strain BL21 (pLysS) cells by standard methods (Ref: Current Protocols in Molecular Biology, Wiley Press, edited by Ausubel et al).
(§4) Radioligand Binding Assay
(§5) LXR alpha and LXR beta receptor binding were assayed in buffer consisting of 50 mM HEPES, pH 7.4, 10 mM NaCl, 5 mM MgCl2. For each 96-well reaction, 500 ng of LXRα-LBD or 700 ng of LXR beta-LBD proteins were bound to 80 μg or 40 μg SPA beads respectively, in a final volume of 50 μl by shaking. The resulting slurry was incubated for 1 h at RT and centrifuged for 2 min at 1300×g. The supernatant containing unbound protein was removed, and the semi-dry pellet containing the receptor-coated beads was re-suspended in 50 μl of buffer. […] All binding assays were performed in 96-well plates and the amount of bound ligand was measured on a Packard TopCount using OptiPlates (Packard). Dose response curves were measured within a range of concentration from 10^−10 M to 10^−4 M.

[2] = biological target: T2, human LXR alpha ligand binding domain (LXRα-LBD) (Homo sapiens, UniProt Q13133); test: Radioligand binding assay (SPA), LXR alpha; details: LXRα-LBD on SPA beads, read-out: LXRalpha Binding IC50
T2 construct: human LXR alpha (aa 164 to 447); unspecified tag ('tagged versions'); made in house; host or cells: E. coli BL21 (pLysS)
T2 sequence (Q13133 164-447): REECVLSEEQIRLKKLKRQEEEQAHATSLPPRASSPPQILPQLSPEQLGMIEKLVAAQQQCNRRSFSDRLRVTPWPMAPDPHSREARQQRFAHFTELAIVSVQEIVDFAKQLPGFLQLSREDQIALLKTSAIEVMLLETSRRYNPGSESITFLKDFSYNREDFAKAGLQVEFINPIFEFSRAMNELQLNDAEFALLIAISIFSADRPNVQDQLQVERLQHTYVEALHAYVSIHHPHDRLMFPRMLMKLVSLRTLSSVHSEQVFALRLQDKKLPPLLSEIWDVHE
Protocol: as §1, §2, §3, §4, §5

IC50 [1]	IC50 [2]	Compound
240 nM	2500 nM	O=C(C1CN(S(=O)(=O)c2ccccc2)C(=O)N1c1ccccc1Cl)N1CCN(c2ncccc2Cl)CC1 (racemic) [Example 63, (RS)-1-Benzenesulfonyl-3-(2-chloro-phenyl)-4-[4-(3-chloro-pyridin-2-yl)-piperazine-1-carbonyl]-imidazolidin-2-one]
100 nM	260 nM	Cc1ccc(C)c(N2CCN(C(=O)[C@@H]3CN(S(=O)(=O)c4ccccc4)C(=O)N3c3ccccc3Cl)CC2)c1 [Example 50, (S)-1-Benzenesulfonyl-3-(2-chloro-phenyl)-4-[4-(2,5-dimethyl-phenyl)-piperazine-1-carbonyl]-imidazolidin-2-one]
480 nM	5500 nM	O=C(C1CN(S(=O)(=O)c2ccccc2)C(=O)N1C1CCCCC1)N1CCN(c2ncccc2C(F)(F)F)CC1 (racemic) [Example 39, (RS)-1-Benzenesulfonyl-3-cyclohexyl-4-[4-(3-trifluoromethyl-pyridin-2-yl)-piperazine-1-carbonyl]-imidazolidin-2-one]

Source: patent publication US7625902B2, “Imidazolidinone derivatives” (Hoffmann-La Roche Inc., priority 2007, dated 2009)
